We go through 16 compounds from patent publication US10392389B2, “Heterocyclic compounds for the inhibition of PASK” (BioEnergenix, LLC, priority 2012, dated 2019).

For one series, the target named is T1, PASK (UniProt #Q96RG2; human recombinant N-terminal GST tagged construct, residues 879-1323) (Homo sapiens, UniProt Q96RG2).
T1 construct: N-terminal GST tagged construct, residues 879-1323; GST (N); host or cells: insect cells
The series can be described thus: PASK ATP Radiochemical Assay. The series is classed as biochemical. The settings on record: 33P-ATP, Myelin Basic Protein substrate, read-out: IC50 Kinase Domain. On the procedure: Biochemical Assay for hPASK Activity
PASK ATP Radiochemical Assay
(§1) Purified PASK (UniProt #Q96RG2; human recombinant N-terminal GST tagged construct, residues 879-1323) from insect cells (final concentration 5 nM) is added to freshly prepared Base Reaction Buffer containing 20 mM HEPES (pH 7.5), 10 mM MgCl2, 1 mM EGTA, 0.02% Brij35, 0.02 mg/ml BSA, 0.1 mM Na3VO4, 2 mM DTT, 1% DMSO and Myelin Basic Protein (20 μM final). Test compounds in DMSO are then added and the mixture, followed by delivery of ^33P-ATP (specific activity 0.01 μCi/μl final) to initiate the reaction. The kinase reaction is incubated for 120 min at room temperature. The entire reaction mixture is washed through onto a P81 Phosphocellulose paper and washed three times for 10 minutes in 75 mM phosphoric acid and once in methanol prior to drying and scintillation counting.

Another series has as its target T2, PASK (Invitrogen) (Homo sapiens, UniProt Q96RG2).
T2 construct: IC50 Kinase Domain; purchased Invitrogen
The series can be described thus: PAS Kinase FRET Assay. Type of series: biochemical. The settings on record: PAS kinase TR-FRET assay (665 nm/615 nm); read-out: IC50 Kinase Domain. The gist of the method:
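PASK phosphorylates a ULight-peptide with ATP in 50 mM HEPES, 10 mM MgCl2, 1 mM EGTA, 0.01% Tween-20, 2 mM DTT for 2 h at 25° C in the dark. Compounds are added as 4× serial dilutions (top 12×10^−5 M at 4×). After stopping, an Eu anti-phospho-substrate antibody is added for 1 h and TR-FRET is read at 665/615 nm.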

Series [1] deals with T3, CK2a2 (NP_001887; human full-length protein, GST tagged) (Homo sapiens, UniProt P19784).
T3 construct: human full-length protein, GST tagged; GST; host or cells: insect cells
T3 sequence (P19784 whole entry): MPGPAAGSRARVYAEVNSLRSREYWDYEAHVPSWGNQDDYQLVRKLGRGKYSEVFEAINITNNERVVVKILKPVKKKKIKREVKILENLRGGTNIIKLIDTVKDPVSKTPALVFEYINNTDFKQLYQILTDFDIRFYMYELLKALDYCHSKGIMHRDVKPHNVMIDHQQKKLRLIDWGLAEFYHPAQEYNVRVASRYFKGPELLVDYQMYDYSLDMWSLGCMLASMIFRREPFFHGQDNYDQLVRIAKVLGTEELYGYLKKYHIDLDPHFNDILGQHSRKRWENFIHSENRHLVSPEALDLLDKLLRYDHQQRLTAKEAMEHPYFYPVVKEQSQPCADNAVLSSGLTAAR
The series can be described thus: Biochemical Assay for CK2 Activity. The settings on record: 33P-ATP radiochemical assay, CK2 sub [RRRDDDSDDD]. On the procedure: Biochemical Assay for CK2 Activity
as §1, with “Purified CK2a2 (NP_001887;” for “Purified PASK (UniProt #Q96RG2;”, “human full-length protein,” for “human recombinant N-terminal”, “GST tagged)” for “GST tagged construct, residues 879-1323)”, “concentration 1.2” for “concentration 5”, “mM Hepes” for “mM HEPES”, “and CK2 sub [RRRDDDSDDD]” for “and Myelin Basic Protein”

In series [2] the target is T4, PIM1 (NP_002639; human full-length protein, 6×His tagged) (Homo sapiens, UniProt P11309).
T4 construct: human full-length protein, 6×His tagged; 6xHis; host or cells: insect cells
T4 sequence (P11309 whole entry): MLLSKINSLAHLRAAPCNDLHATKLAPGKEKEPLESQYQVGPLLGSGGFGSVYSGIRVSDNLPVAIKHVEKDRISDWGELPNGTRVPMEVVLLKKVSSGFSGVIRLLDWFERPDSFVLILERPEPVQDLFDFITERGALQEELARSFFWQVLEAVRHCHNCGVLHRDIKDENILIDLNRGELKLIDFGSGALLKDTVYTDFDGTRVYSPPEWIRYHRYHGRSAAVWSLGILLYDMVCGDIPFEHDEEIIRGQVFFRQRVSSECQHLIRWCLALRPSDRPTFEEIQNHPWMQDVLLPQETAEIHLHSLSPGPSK
The series can be described thus: Biochemical Assay for PIM1 Activity. The settings on record: 33P-ATP radiochemical assay, S6K/Rsk2 peptide 2 substrate. As to the method:
Biochemical Assay for PIM1 Activity
as §1, with “Purified PIM1 (NP_002639;” for “Purified PASK (UniProt #Q96RG2;”, “human full-length protein, 6×His tagged)” for “human recombinant N-terminal GST tagged construct, residues 879-1323)”, “concentration 1.0” for “concentration 5”, “mM Hepes” for “mM HEPES”, “and substrate S6K/Rsk2 peptide 2 [KKRNRTLTK]” for “and Myelin Basic Protein”, “activity 10” for “activity 0.01”

Series [3] in a line: In vivo pharmacokinetics in the Sprague Dawley rat. The settings on record: formulation as in Table 5. As to the method: Pharmacokinetics of a PASK Inhibitor
The in vivo pharmacokinetics of Examples 12, 17, 43, and 51 were evaluated in the Sprague Dawley rat. Blood samples were collected at 0.083, 0.25, 0.5, 1, 2, 4, 6, 8, and 24 hours and the samples were analyzed for test compounds content using LC/MS/MS. The data was submitted to pharmacokinetic analysis using WinNonLin software and the observed and calculated pharmacokinetic parameters are shown in Table 5 for each compound.

T1 sequence (Q96RG2 879-1323, stated change not applied): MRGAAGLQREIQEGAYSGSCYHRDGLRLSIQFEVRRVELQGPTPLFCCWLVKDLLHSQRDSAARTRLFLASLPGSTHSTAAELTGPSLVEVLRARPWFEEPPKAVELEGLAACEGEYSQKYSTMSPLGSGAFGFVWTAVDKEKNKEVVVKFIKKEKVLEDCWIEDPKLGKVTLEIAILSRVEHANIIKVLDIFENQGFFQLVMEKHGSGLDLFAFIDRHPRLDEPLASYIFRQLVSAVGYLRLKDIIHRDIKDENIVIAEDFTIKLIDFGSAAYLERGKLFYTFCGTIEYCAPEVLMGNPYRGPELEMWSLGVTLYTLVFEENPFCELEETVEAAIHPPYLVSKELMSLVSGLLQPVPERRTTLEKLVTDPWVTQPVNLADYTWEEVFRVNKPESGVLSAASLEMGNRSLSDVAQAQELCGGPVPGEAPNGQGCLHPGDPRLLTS
T2 sequence (Q96RG2 999-1251 limits assumed): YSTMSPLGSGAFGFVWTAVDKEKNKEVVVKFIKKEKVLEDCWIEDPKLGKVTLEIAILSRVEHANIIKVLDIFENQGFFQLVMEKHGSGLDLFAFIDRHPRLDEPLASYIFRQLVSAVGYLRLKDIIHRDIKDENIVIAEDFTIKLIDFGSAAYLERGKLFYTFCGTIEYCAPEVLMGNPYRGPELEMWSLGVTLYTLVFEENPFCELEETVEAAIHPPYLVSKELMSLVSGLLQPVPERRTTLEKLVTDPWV

As for `CCn1nccc1-c1cnn2c(=O)cc(-c3ccc(Cl)c(OC)c3)[nH]c12` [Example 65, 5-(4-chloro-3-methoxyphenyl)-3-(1-ethyl-1H-pyrazol-5-yl)pyrazolo[1,5-a]pyrimidin-7(4H)-one], the IC50 (on PASK; on PASK (Invitrogen); in series [1]; in series [2]) was not above 10 µM throughout.

Consider `Cc1nn2c(=O)cc(-c3ccc4c(c3)OCO4)[nH]c2c1-c1ncco1` [Example 2, 5-(2H-1,3-benzodioxol-5-yl)-2-methyl-3-(1,3-oxazol-2-yl)-4H,7H-pyrazolo[1,5-a]pyrimidin-7-one], for which the IC50 (at PASK; on PASK (Invitrogen); in series [1]; in series [2]) was not above 10 µM in each case.

On to `CCc1coc(-c2cnn3c(=O)cc(-c4ccc5c(c4)OCO5)[nH]c23)n1` [Example 16, 5-(2H-1,3-benzodioxol-5-yl)-3-(4-ethyl-1,3-oxazol-2-yl)-4H,7H-pyrazolo[1,5-a]pyrimidin-7-one], for which the IC50 (on PASK; at PASK (Invitrogen); in series [1]; in series [2]) was not above 10 µM in each case.

In the case of `CCn1ncc2cc(-c3cc(=O)n4ncc(-c5nc(C)no5)c4[nH]3)ccc21` [Example 43, 5-(1-ethyl-1H-indazol-5-yl)-3-(3-methyl-1,2,4-oxadiazol-5-yl)-4H,7H-pyrazolo[1,5-a]pyrimidin-7-one], the IC50 on PASK (Invitrogen) is not above 10 µM. In series [3] (IV, 3 mg/kg), the “Cl (clearance)” value came out at 23.9 mL/min/kg, the “Vss (volume of distribution)” value was 0.719 L/kg and the “t1/2 (half-life)” value amounted to 1.62 h. Also, in series [3] (PO, 10 mg/kg), the “F (oral bioavailability)” value was 44.7%, the “Tmax (Time to maximum blood concentration after an oral dose)” value was 30 min and the “t1/2 (half-life)” value turned out to be 3.35 h.

Regarding `Cc1cnc(-c2cnn3c(=O)cc(-c4ccc5[nH]ncc5c4)[nH]c23)o1` [Example 24, 5-(1H-indazol-5-yl)-3-(5-methyloxazol-2-yl)pyrazolo[1,5-a]pyrimidin-7(4H)-one], the IC50 (at PASK; at PASK (Invitrogen); in series [1]; in series [2]) was not above 10 µM in each case.

Regarding `CCn1nccc1-c1cnn2c(=O)cc(-c3ccc(Cl)c(Cl)c3)[nH]c12` [Example 95, 5-(3,4-dichlorophenyl)-3-(1-ethyl-1H-pyrazol-5-yl)pyrazolo[1,5-a]pyrimidin-7(4H)-one], the concentration for half-maximal inhibition (IC50) (at PASK; on PASK (Invitrogen); in series [1]; in series [2]) was not above 10 µM in each case.

`CCn1ncc2cc(-c3cc(=O)n4ncc(-c5ncc(C)o5)c4[nH]3)ccc21` [Example 12, 5-(1-ethyl-1H-indazol-5-yl)-3-(5-methyl-1,3-oxazol-2-yl)-4H,7H-pyrazolo[1,5-a]pyrimidin-7-one]: the IC50 at PASK (Invitrogen) is not above 10 µM. Further, in series [3] (IV, 3 mg/kg), the “Cl (clearance)” value is 8.76 mL/min/kg, the “Vss (volume of distribution)” value came to 0.35 L/kg and the “t1/2 (half-life)” value was 3.75 h. Moreover, in series [3] (PO, 10 mg/kg), the “F (oral bioavailability)” value came out at 46.5%, the “Tmax (Time to maximum blood concentration after an oral dose)” value is 30 min and the “t1/2 (half-life)” value is 2.38 h.

For `CCn1ncc2cc(-c3cc(=O)n4ncc(-c5oncc5C)c4[nH]3)ccc21` [Example 87, 5-(1-ethyl-1H-indazol-5-yl)-3-(4-methyl-1,2-oxazol-5-yl)-4H,7H-pyrazolo[1,5-a]pyrimidin-7-one], the IC50 (at PASK; on PASK (Invitrogen); in series [1]; in series [2]) was not above 10 µM in each case.

In the case of `Cc1cnc(-c2cnn3c(=O)cc(-c4ccc5c(c4)OCO5)[nH]c23)o1` [Example 3, 5-(2H-1,3-benzodioxol-5-yl)-3-(5-methyl-1,3-oxazol-2-yl)-4H,7H-pyrazolo[1,5-a]pyrimidin-7-one], the 50% inhibitory concentration (IC50) (on PASK; at PASK (Invitrogen); in series [1]; in series [2]) was not above 10 µM throughout.

`CCn1ncc2cc(-c3cc(=O)n4ncc(-c5cc[nH]n5)c4[nH]3)ccc21` [Example 55, 5-(1-ethyl-1H-indazol-5-yl)-3-(1H-pyrazol-3-yl)pyrazolo[1,5-a]pyrimidin-7(4H)-one]: the IC50 (on PASK; on PASK (Invitrogen); in series [1]; in series [2]) was not above 10 µM in each case.

For `CCn1ncc2cc(-c3cc(=O)n4ncc(-c5n[nH]cc5C)c4[nH]3)ccc21` [Example 84, 5-(1-ethyl-1H-indazol-5-yl)-3-(4-methyl-1H-pyrazol-3-yl)-4H,7H-pyrazolo[1,5-a]pyrimidin-7-one], the half-inhibitory concentration (IC50) (at PASK; on PASK (Invitrogen); in series [1]; in series [2]) was not above 10 µM each time.

Regarding `CCn1ncc2cc(-c3cc(=O)n4ncc(-c5noc6ccccc56)c4[nH]3)ccc21` [Example 59, 3-(benzo[d]isoxazol-3-yl)-5-(1-ethyl-1H-indazol-5-yl)pyrazolo[1,5-a]pyrimidin-7(4H)-one], the IC50 (at PASK; at PASK (Invitrogen); in series [1]; in series [2]) was not above 10 µM each time.

With `Cc1cnc(-c2cnn3c(=O)cc(-c4ccc5[nH]nnc5c4)[nH]c23)o1` [Example 5, 5-(1H-1,2,3-benzotriazol-5-yl)-3-(5-methyl-1,3-oxazol-2-yl)-4H,7H-pyrazolo[1,5-a]pyrimidin-7-one], the IC50 (on PASK; at PASK (Invitrogen); in series [1]; in series [2]) was not above 10 µM each time.

As to `Cn1nccc1-c1cnn2c(=O)cc(-c3ccc(Cl)c(Cl)c3)[nH]c12` [Example 98, 5-(3,4-dichlorophenyl)-3-(1-methyl-1H-pyrazol-5-yl)pyrazolo[1,5-a]pyrimidin-7(4H)-one], the IC50 (at PASK; on PASK (Invitrogen); in series [1]; in series [2]) was not above 10 µM each time.

`Cn1ccc(-c2cnn3c(=O)cc(-c4ccc5c(cnn5C)c4)[nH]c23)n1` [Example 83, 5-(1-methyl-1H-indazol-5-yl)-3-(1-methyl-1H-pyrazol-3-yl)pyrazolo[1,5-a]pyrimidin-7(4H)-one]: the concentration for half-maximal inhibition (IC50) (at PASK; at PASK (Invitrogen); in series [1]; in series [2]) was not above 10 µM each time.

With `Cc1cnc(-c2cnn3c(=O)cc(-c4ccc5onc(C)c5c4)[nH]c23)o1` [Example 91, 5-(3-methylbenzo[d]isoxazol-5-yl)-3-(5-methyloxazol-2-yl)pyrazolo[1,5-a]pyrimidin-7(4H)-one], the IC50 (at PASK; at PASK (Invitrogen); in series [1]; in series [2]) was not above 10 µM in each case.
